Assay results as given in patent publication US9040528B2, “Chemical compounds 542” (AstraZeneca AB, priority 2008, dated 2015).

What follows are compounds tested against Escherichia coli DNA gyrase A/B tetramer (Escherichia coli (strain K12), UniProt P0AES4+P0AES6) (assay: DNA gyrase supercoiling activity fluorescence polarisation assay). Settings: not given.
Format: biochemical
Procedure, shortened: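 Supercoiling reactions quenched with 40 nM 5′-BODIPY-FL triplex-forming oligonucleotide probe in pH 3.5 NaCl/sodium acetate buffer; after 60 min, fluorescence anisotropy read (ex 485/em 535 nm). IC50 by nonlinear regression, normalised to 0.8% DMSO (100% activity) and 5 μM ciprofloxacin (0% activity).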

Which IC50 does the source give for `C[C@@H]1CN2c3c(cc4c(C(N)=O)noc4c3F)CC3(C(=O)NC(=O)NC3=O)[C@H]2[C@H](C)O1` (relative stereo) [Example 142, (2R,4S,4aS)-rel-11-fluoro-2,4-dimethyl-2′,4′,6′-trioxo-2,2′,3′,4,4a,4′,6,6′-octahydro-^1H,1′H-spiro[isoxazolo[4,5-g][1,4]oxazino[4,3-a]quinoline-5,5′-pyrimidine]-8-carboxamide] here?
Its IC50 is 0.3 µM.

Same assay, conditions: 5 nM enzyme, relaxed plasmid, 0.3 mM ATP, ambient temperature; read-out: E. coli DNA gyrase supercoiling IC50

For `C[C@@H]1CN2c3c(nc4c(C(=O)NCC(C)(C)C)noc4c3Cl)CC3(C(=O)NC(=O)NC3=O)[C@H]2[C@H](C)O1` (relative stereo) [Example 129, (2R,4S,4aS)-rel-11-Chloro-2,4-dimethyl-N-neopentyl-2′,4′,6′-trioxo-2,2′,3′,4,4a,4′,6,6′-octahydro-1H,1′H-spiro[isoxazolo[4,5-g][1,4]oxazino[4,3-a][1,5]naphthyridine-5,5′-pyrimidine]-8-carboxamide], which IC50 is on record?
Its IC50 is 31 µM.

How did the IC50 turn out when `C[C@@H]1CN2c3c(nc4c(C(=O)N5CC(F)(F)C5)noc4c3Cl)CC3(C(=O)NC(=O)NC3=O)[C@H]2[C@H](C)O1` (relative stereo) [Example 130, (2R,4S,4aS)-rel-11-Chloro-8-(3,3-difluoroazetidine-1-carbonyl)-2,4-dimethyl-2,4,4a,6-tetrahydro-1H,1′H-spiro[isoxazolo[4,5-g][1,4]oxazino[4,3-a][1,5]naphthyridine-5,5′-pyrimidine]-2′,4′,6′(3′H)-trione] was run?
The IC50 was 30 µM.

Which IC50 does the source give for `C[C@@H]1CN2c3c(nc4c(C(=O)NCc5ccccc5)noc4c3Cl)CC3(C(=O)NC(=O)NC3=O)[C@H]2[C@H](C)O1` (relative stereo) [Example 131, (2R,4S,4aS)-rel-N-benzyl-11-chloro-2,4-dimethyl-2′,4′,6′-trioxo-2,2′,3′,4,4a,4′,6,6′-octahydro-1H,1′H-spiro[isoxazolo[4,5-g][1,4]oxazino[4,3-a][1,5]naphthyridine-5,5′-pyrimidine]-8-carboxamide] here?
Its IC50 is 4.4 µM.

How did the IC50 turn out when `C[C@@H]1CN2c3c(nc4c(C(=O)NCc5ccc(C#N)cc5)noc4c3Cl)CC3(C(=O)NC(=O)NC3=O)[C@H]2[C@H](C)O1` (relative stereo) [Example 132, (2R,4S,4aS)-rel-11-chloro-N-(4-cyanobenzyl)-2,4-dimethyl-2′,4′,6′-trioxo-2,2′,3′,4,4a,4′,6,6′-octahydro-1H,1′H-spiro[isoxazolo[4,5-g][1,4]oxazino[4,3-a][1,5]naphthyridine-5,5′-pyrimidine]-8-carboxamide] was run?
The IC50 was 7.7 µM.

`C[C@@H]1CN2c3c(nc4c(C(=O)NCc5cccc(C#N)c5)noc4c3Cl)CC3(C(=O)NC(=O)NC3=O)[C@H]2[C@H](C)O1` (relative stereo) [Example 133, (2R,4S,4aS)-rel-11-chloro-N-(3-cyanobenzyl)-2,4-dimethyl-2′,4′,6′-trioxo-2,2′,3′,4,4a,4′,6,6′-octahydro-1H,1′H-spiro[isoxazolo[4,5-g][1,4]oxazino[4,3-a][1,5]naphthyridine-5,5′-pyrimidine]-8-carboxamide] was tested. Which IC50 did it give?
Its IC50 is 13 µM.

With `CCOC(=O)c1noc2c(F)c3c(cc12)CC1(C(=O)NC(=O)NC1=O)[C@H]1[C@H](C)O[C@H](C)CN31` (relative stereo) [Example 134, (2R,4S,4aS)-rel-ethyl 11-fluoro-2,4-dimethyl-2′,4′,6′-trioxo-2,2′,3′,4,4a,4′,6,6′-octahydro-1H,1′H-spiro[isoxazolo[4,5-g][1,4]oxazino[4,3-a]quinoline-5,5′-pyrimidine]-8-carboxylate] as the compound, how does the IC50 read?
Its IC50 is 1 µM.

Which IC50 does the source give for `C[C@@H]1CN2c3c(cc4c(C(=O)N5CCOCC5)noc4c3F)CC3(C(=O)NC(=O)NC3=O)[C@H]2[C@H](C)O1` (relative stereo) [Example 135, (2R,4S,4aS)-rel-11-fluoro-2,4-dimethyl-8-(morpholine-4-carbonyl)-2,4,4a,6-tetrahydro-1H,1′H-spiro[isoxazolo[4,5-g][1,4]oxazino[4,3-a]quinoline-5,5′-pyrimidine]-2′,4′,6′(3′H)-trione] here?
Its IC50 is 3.3 µM.

With `C[C@@H]1CN2c3c(cc4c(C(=O)N(C)C)noc4c3F)CC3(C(=O)NC(=O)NC3=O)[C@H]2[C@H](C)O1` (relative stereo) [Example 136, (2R,4S,4aS)-rel-11-fluoro-N,N,2,4-tetramethyl-2′,4′,6′-trioxo-2,2′,3′,4,4a,4′,6,6′-octahydro-1H,1′H-spiro[isoxazolo[4,5-g][1,4]oxazino[4,3-a]quinoline-5,5′-pyrimidine]-8-carboxamide] as the compound, how does the IC50 read?
The IC50 was 2.8 µM.

Which IC50 does the source give for `CON(C)C(=O)c1noc2c(F)c3c(cc12)CC1(C(=O)NC(=O)NC1=O)[C@H]1[C@H](C)O[C@H](C)CN31` (relative stereo) [Example 137, (2R,4S,4aS)-rel-11-fluoro-N-methoxy-N,2,4-trimethyl-2′,4′,6′-trioxo-2,2′,3′,4,4a,4′,6,6′-octahydro-1H,1′H-spiro[isoxazolo[4,5-g][1,4]oxazino[4,3-a]quinoline-5,5′-pyrimidine]-8-carboxamide] here?
Its IC50 is 2.3 µM.

With `CCN(C)C(=O)c1noc2c(F)c3c(cc12)CC1(C(=O)NC(=O)NC1=O)[C@H]1[C@H](C)O[C@H](C)CN31` (relative stereo) [Example 139, (2R,4S,4aS)-rel-N-ethyl-11-fluoro-N,2,4-trimethyl-2′,4′,6′-trioxo-2,2′,3′,4,4a,4′,6,6′-octahydro-1H,1′H-spiro[isoxazolo[4,5-g][1,4]oxazino[4,3-a]quinoline-5,5′-pyrimidine]-8-carboxamide] as the compound, how does the IC50 read?
Its IC50 is 7.6 µM.

With `CNC(=O)c1noc2c(F)c3c(cc12)CC1(C(=O)NC(=O)NC1=O)[C@H]1[C@H](C)O[C@H](C)CN31` (relative stereo) [Example 140, (2R,4S,4aS)-rel-11-fluoro-N,2,4-trimethyl-2′,4′,6′-trioxo-2,2′,3′,4,4a,4′,6,6′-octahydro-1H,1′H-spiro[isoxazolo[4,5-g][1,4]oxazino[4,3-a]quinoline-5,5′-pyrimidine]-8-carboxamide] as the compound, how does the IC50 read?
Its IC50 is 1.1 µM.

With `C[C@@H]1CN2c3c(cc4c(C(=O)N5CCN(C)C(=O)C5)noc4c3F)CC3(C(=O)NC(=O)NC3=O)[C@H]2[C@H](C)O1` (relative stereo) [Example 141, (2R,4S,4aS)-rel-11-fluoro-2,4-dimethyl-8-(4-methyl-3-oxopiperazine-1-carbonyl)-2,4,4a,6-tetrahydro-1H,1′H-spiro[isoxazolo[4,5-g][1,4]oxazino[4,3-a]quinoline-5,5′-pyrimidine]-2′,4′,6′(3′H)-trione] as the compound, how does the IC50 read?
The IC50 was 4.9 µM.

Which IC50 does the source give for `COCCNC(=O)c1noc2c(F)c3c(cc12)CC1(C(=O)NC(=O)NC1=O)[C@H]1[C@H](C)O[C@H](C)CN31` (relative stereo) [Example 143, (2R,4S,4aS)-rel-11-fluoro-N-(2-methoxyethyl)-2,4-dimethyl-2′,4′,6′-trioxo-2,2′,3′,4,4a,4′,6,6′-octahydro-1H,1′H-spiro[isoxazolo[4,5-g][1,4]oxazino[4,3-a]quinoline-5,5′-pyrimidine]-8-carboxamide] here?
Its IC50 is 1 µM.

`C[C@@H]1CN2c3c(cc4c(C(=O)NC(C)(C)C)noc4c3F)CC3(C(=O)NC(=O)NC3=O)[C@H]2[C@H](C)O1` (relative stereo) [Example 144, (2R,4S,4aS)-rel-N-tert-butyl-11-fluoro-2,4-dimethyl-2′,4′,6′-trioxo-2,2′,3′,4,4a,4′,6,6′-octahydro-1H,1′H-spiro[isoxazolo[4,5-g][1,4]oxazino[4,3-a]quinoline-5,5′-pyrimidine]-8-carboxamide] was tested. Which IC50 did it give?
Its IC50 is 2.9 µM.

Which IC50 does the source give for `C[C@@H]1CN2c3c(cc4c(C(=O)N5CCS(=O)(=O)CC5)noc4c3F)CC3(C(=O)NC(=O)NC3=O)[C@H]2[C@H](C)O1` (relative stereo) [Example 145, (2R,4S,4aS)-rel-8-[(1,1-dioxidothiomorpholin-4-yl)carbonyl]-11-fluoro-2,4-dimethyl-1,2,4,4a-tetrahydro-2′H,6H-spiro[isoxazolo[4,5-g][1,4]oxazino[4,3-a]quinoline-5,5′-pyrimidine]-2′,4′,6′(1′H,3′H)-trione] here?
Its IC50 is 5.2 µM.

How did the IC50 turn out when `C[C@@H]1CN2c3c(cc4c(C(=O)NC5CCOCC5)noc4c3F)CC3(C(=O)NC(=O)NC3=O)[C@H]2[C@H](C)O1` (relative stereo) [Example 146, (2R,4S,4aS)-rel-11-fluoro-2,4-dimethyl-2′,4′,6′-trioxo-N-(tetrahydro-2H-pyran-4-yl)-2,2′,3′,4,4a,4′,6,6′-octahydro-1H,1′H-spiro[isoxazolo[4,5-g][1,4]oxazino[4,3-a]quinoline-5,5′-pyrimidine]-8-carboxamide] was run?
The IC50 was 4.9 µM.

Which IC50 does the source give for `CC(C)NC(=O)c1noc2c(F)c3c(cc12)CC1(C(=O)NC(=O)NC1=O)[C@H]1[C@H](C)O[C@H](C)CN31` (relative stereo) [Example 147, (2R,4S,4aS)-rel-11-fluoro-N-isopropyl-2,4-dimethyl-2′,4′,6′-trioxo-2,2′,3′,4,4a,4′,6,6′-octahydro-1H,1′H-spiro[isoxazolo[4,5-g][1,4]oxazino[4,3-a]quinoline-5,5′-pyrimidine]-8-carboxamide] here?
Its IC50 is 3.9 µM.

Which IC50 does the source give for `C[C@@H]1CN2c3c(cc4c(-c5ncccn5)noc4c3F)CC3(C(=O)NC(=O)NC3=O)[C@H]2[C@H](C)O1` (relative stereo) [Example 148, (2R,4S,4aS)-rel-11-fluoro-2,4-dimethyl-8-(pyrimidin-2-yl)-1,2,4,4a-tetrahydro-2′H,6H-spiro[1,4-oxazino[4,3-a][1,2]oxazolo[4,5-g]quinoline-5,5′-pyrimidine]-2′,4′,6′(1′H,3′H)-trione] here?
Its IC50 is 0.9 µM.

`Cc1noc2c(F)c3c(cc12)CC1(C(=O)NC(=O)NC1=O)[C@H]1[C@H](C)O[C@H](C(F)(F)F)CN31` (relative stereo) [Example 149, (2S,4S,4aS)-rel-11-fluoro-4,8-dimethyl-2-(trifluoromethyl)-1,2,4,4a-tetrahydro-2′H,6H-spiro[isoxazolo[4,5-g][1,4]oxazino[4,3-a]quinoline-5,5′-pyrimidine]-2′,4′,6′(1′H,3′H)-trione] was tested. Which IC50 did it give?
Its IC50 is 4.4 µM.
